Literature values as cited in patent US7468367B2, “Ethylene diamine derivatives and their use as orexin-receptor antagonists” (Smithkline Beecham p.l.c., priority 2001, dated 2008).

Legend:
freely-feeding rats = conditions: central administration, 4 hour time period
orexin receptors = conditions: central administration at the onset of the normal sleep period

In the case of “orexin-A: peptide ligand and agonist of the orexin receptors; the human amino acid sequence is given in the 1st table (QPLPDCCRQKTCSCRLYELLHGAGNHAAGILTL; not fully specified; Orexin-A; UniProt O43612 34-66, looked up)”, the “increase in food intake over control rats receiving vehicle” value (freely-feeding rats) is listed as “approximately four-fold” and the “arousal in rat sleep/EEG” value (orexin receptors) is listed as “dose-related increase in arousal”.
